Measurements published in ChEMBL document CHEMBL3390836, “Mannich- and LedererManasse-based analogues of the natural product S-(+)-curcuphenol as cancer proliferation and migration inhibitors” (Medchemcomm, 2012).

Key:
NCI-H322M = experiment: Cytotoxicity against human NCI-H322M cells assessed as cell growth at 10^-6 M after 48 hrs by SRB assay relative to control; format: functional; settings: read-out: Activity
NCI-H522 = experiment: Cytotoxicity against human NCI-H522 cells assessed as cell growth at 10 uM after 48 hrs by SRB assay relative to control; format: functional; settings: NCI-H522, 48 h, read-out: Activity
[1] = Cytotoxicity against human HCT15 cells assessed as cell growth at 10 uM after 48 hrs by SRB assay relative to control; format: functional; settings: HCT-15, 48 h, read-out: Activity
Malme-3M [2] = experiment: Cytotoxicity against human MALME-3M cells assessed as cell growth at 10 uM after 48 hrs by SRB assay relative to control; format: functional; settings: read-out: Activity
[3] = Cytotoxicity against human SKOV3 cells after 48 hrs by SRB assay; format: functional; settings: SK-OV-3, 48 h
SK-MEL-28 = experiment: Cytotoxicity against human SK-MEL-28 cells assessed as cell growth at 10 uM after 48 hrs by SRB assay relative to control; format: functional; settings: SK-MEL-28, 48 h, read-out: Activity
CAKI-1 = experiment: Cytotoxicity against human Caki1 cells assessed as cell growth at 10^-7 M after 48 hrs by SRB assay relative to control; format: functional; settings: CAKI-1, 48 h, read-out: Activity
SK-MEL-5 = experiment: Cytotoxicity against human SK-MEL-5 cells assessed as cell growth at 10 uM after 48 hrs by SRB assay relative to control; format: functional; settings: SK-MEL-5, 48 h, read-out: Activity
[4] = Cytotoxicity against human SKOV3 cells assessed as cell growth at 10 uM after 48 hrs by SRB assay relative to control; format: functional; settings: SK-OV-3, 48 h, read-out: Activity
BT-549 = experiment: Cytotoxicity against human BT549 cells assessed as cell growth at 10 uM after 48 hrs by SRB assay relative to control; format: functional; settings: BT-549, 48 h, read-out: Activity
[5] = Cytotoxicity against human OVCAR8 cells assessed as cell growth at 10 uM after 48 hrs by SRB assay relative to control; format: functional; settings: OVCAR-8, 48 h, read-out: Activity
SF-295 [6] = experiment: Cytotoxicity against human SF295 cells assessed as cell growth at 10 uM after 48 hrs by SRB assay relative to control; format: functional; settings: SF-295, 48 h, read-out: Activity
T47D = experiment: Cytotoxicity against human T47D cells assessed as cell growth at 10 uM after 48 hrs by SRB assay relative to control; format: functional; settings: read-out: Activity
A549 = experiment: Cytotoxicity against human A549 cells assessed as cell growth at 10 uM after 48 hrs by SRB assay relative to control; format: functional; settings: A549, 48 h, read-out: Activity
MCF7 = experiment: Cytotoxicity against human MCF7 cells assessed as cell growth at 10 uM after 48 hrs by SRB assay relative to control; format: functional; settings: MCF7, 48 h, read-out: Activity
NCI-H460 = experiment: Cytotoxicity against human NCI-H460 cells assessed as cell growth at 10 uM after 48 hrs by SRB assay relative to control; format: functional; settings: NCI-H460, 48 h, read-out: Activity
Malme-3M [7] = experiment: Cytotoxicity against human MALME-3M cells assessed as cell growth at 10^-7 M after 48 hrs by SRB assay relative to control; format: functional; settings: read-out: Activity
[8] = Cytotoxicity against human Hs 578T cells assessed as cell growth at 10 uM after 48 hrs by SRB assay relative to control; format: functional; settings: read-out: Activity
HCC 2998 = experiment: Cytotoxicity against human HCC2998 cells after 48 hrs by SRB assay; format: functional; settings: HCC 2998, 48 h; for CC50: read-out: LC50 (the source's name)
MOLT-4 = experiment: Cytotoxicity against human MOLT4 cells assessed as cell growth at 10 uM after 48 hrs by SRB assay relative to control; format: functional; settings: MOLT-4, 48 h, read-out: Activity
[9] = Cytotoxicity against human UO31 cells assessed as cell growth at 10 uM after 48 hrs by SRB assay relative to control; format: functional; settings: UO-31, 48 h, read-out: Activity
SF-268 [10] = experiment: Cytotoxicity against human SF268 cells assessed as cell growth at 10^-8 M after 48 hrs by SRB assay relative to control; format: functional; settings: SF-268, 48 h, read-out: Activity
[11] = Cytotoxicity against human PC3 cells assessed as cell growth at 10 uM after 48 hrs by SRB assay relative to control; format: functional; settings: PC-3, 48 h, read-out: Activity
[12] = Cytotoxicity against human EKVX cells assessed as cell growth at 10^-6 M after 48 hrs by SRB assay relative to control; format: functional; settings: read-out: Activity
[13] = Cytotoxicity against human NCI-ADR-RES cells assessed as cell growth at 10 uM after 48 hrs by SRB assay relative to control; format: functional; settings: read-out: Activity
MDA-MB-468 = experiment: Cytotoxicity against human MDA-MB-468 cells assessed as cell growth at 10 uM after 48 hrs by SRB assay relative to control; format: functional; settings: MDA-MB-468, 48 h, read-out: Activity
MDA-MB-231 [14] = experiment: Antimigratory activity against human MDA-MB-231 cells after 24 hrs by wound-healing assay; format: functional, cell-based; settings: MDA-MB-231, 24 h
[15] = Cytotoxicity against human UACC257 cells assessed as cell growth at 10 uM after 48 hrs by SRB assay relative to control; format: functional; settings: UACC-257, 48 h, read-out: Activity
HOP-92 = experiment: Cytotoxicity against human HOP92 cells assessed as cell growth at 10 uM after 48 hrs by SRB assay relative to control; format: functional; settings: HOP-92, 48 h, read-out: Activity
MDA-MB-231 [16] = experiment: Cytotoxicity against human MDA-MB-231 cells assessed as cell growth at 10^-4 M after 48 hrs by SRB assay relative to control; format: functional; settings: MDA-MB-231, 48 h, read-out: Activity
HOP-62 = experiment: Cytotoxicity against human HOP62 cells assessed as cell growth at 10 uM after 48 hrs by SRB assay relative to control; format: functional; settings: HOP-62, 48 h, read-out: Activity
SF-295 [17] = experiment: Cytotoxicity against human SF295 cells assessed as cell growth at 10^-4 M after 48 hrs by SRB assay relative to control; format: functional; settings: SF-295, 48 h, read-out: Activity
A498 = experiment: Cytotoxicity against human A498 cells assessed as cell growth at 10 uM after 48 hrs by SRB assay relative to control; format: functional; settings: A498, 48 h, read-out: Activity
NCI-H226 = experiment: Cytotoxicity against human NCI-H226 cells assessed as cell growth at 10 uM after 48 hrs by SRB assay relative to control; format: functional; settings: NCI-H226, 48 h, read-out: Activity
DU-145 = experiment: Cytotoxicity against human DU145 cells assessed as cell growth at 10 uM after 48 hrs by SRB assay relative to control; format: functional; settings: DU-145, 48 h, read-out: Activity
SR = experiment: Cytotoxicity against human SR cells assessed as cell growth at 10 uM after 48 hrs by SRB assay relative to control; format: functional; settings: read-out: Activity
SF-268 [18] = experiment: Cytotoxicity against human SF268 cells assessed as cell growth at 10 uM after 48 hrs by SRB assay relative to control; format: functional; settings: SF-268, 48 h, read-out: Activity

| Compound | growth at 10 µM [1] | growth at 10 µM (Malme-3M [2]) | growth at 10 µM (SK-MEL-28) | growth at 10 µM (SK-MEL-5) | growth at 10 µM [4] | growth at 10 µM [5] | growth at 10 µM (SF-295 [6]) | growth at 10 µM (T47D) | growth at 10 µM (A549) | growth at 10 µM (MCF7) | growth at 10 µM (NCI-H460) | growth at 10 µM [8] | growth at 10 µM (MOLT-4) | growth at 10 µM [9] | growth at 10 µM [11] | growth at 10 µM [13] | growth at 10 µM (MDA-MB-468) | IC50 (MDA-MB-231 [14]) | growth at 10 µM [15] | growth at 10 µM (HOP-62) | also measured |
| --- | --- | --- | --- | --- | --- | --- | --- | --- | --- | --- | --- | --- | --- | --- | --- | --- | --- | --- | --- | --- | --- |
| COc1ccc(CCN2COc3c([C@@H](C)CCC=C(C)C)ccc(C)c3C2)cc1OC | 2% | -78% | -44% | -96% | 59% | 24% | -18% | -64% | 51% | 4% | -58% | 21% | 23% | 10% | -25% | -2% | -70% | 9.5 µM | 3% | -76% | growth at 1 µM (NCI-H322M): 92%; growth at 10 µM (NCI-H522): 64.7%; GI50 [3]: 11.8 µM; LC50 (concentration killing 50% of cells) [3]: 81.8 µM; TGI [3]: 31.1 µM; growth at 0.1 µM (CAKI-1): 91%; growth at 10 µM (BT-549): 87.9%; growth at 0.1 µM (Malme-3M [7]): 86%; GI50 (HCC 2998): 1.59 µM; TGI (HCC 2998): 2.96 µM; CC50 (HCC 2998): 5.49 µM; growth at 0.01 µM (SF-268 [10]): 85%; growth at 1 µM [12]: 91%; growth at 10 µM (HOP-92): -1.29%; growth at 100 µM (MDA-MB-231 [16]): -91%; growth at 100 µM (SF-295 [17]): -87%; growth at 10 µM (A498): 7%; growth at 10 µM (NCI-H226): 47% |
| CC(C)=CCC[C@H](C)c1ccc(C)c2c1OCN(CCCCCO)C2 | 94% | 93.7% | 115% | 91.7% | 88.8% | 90.1% | 110% | 88.1% | 82.5% | 88.7% | 81.1% | 81.2% | 66.5% | 57% | 68.6% | 76% | 90% | 10 µM | 78.4% | 92.5% | growth at 10 µM (DU-145): 109%; growth at 10 µM (NCI-H522): -1.75%; growth at 10 µM (SR): 66.6%; growth at 10 µM (BT-549): 72.1%; growth at 10 µM (SF-268 [18]): 97.5%; growth at 10 µM (HOP-92): 27.7%; growth at 10 µM (A498): 75.3%; growth at 10 µM (NCI-H226): 98.4% |
| CC(C)=CCC[C@H](C)c1ccc(C)c2c1OCN(CC1CCNCC1)C2 | 39.8% | 90% | 86% | 30% | 87% | 75.3% | 80% | -94.4% | 54.1% | 36% | 24.6% | 64.3% | 34.1% | 60.5% | 59.4% | 83.5% | 7.48% | 8.1 µM | 24.6% | 80% | growth at 10 µM (DU-145): 93.9%; growth at 1 µM (NCI-H322M): 108%; GI50 [3]: 16.7 µM; LC50 (concentration killing 50% of cells) [3]: 57.8 µM; TGI [3]: 31.1 µM; growth at 10 µM (SR): -8.52%; growth at 0.1 µM (CAKI-1): 108%; growth at 10 µM (BT-549): 55.8%; growth at 0.1 µM (Malme-3M [7]): 94%; growth at 10 µM (SF-268 [18]): 93%; GI50 (HCC 2998): 3.74 µM; TGI (HCC 2998): 12.3 µM; CC50 (HCC 2998): 37.5 µM; growth at 0.01 µM (SF-268 [10]): 102%; growth at 1 µM [12]: 94%; growth at 10 µM (HOP-92): 12.3%; growth at 100 µM (MDA-MB-231 [16]): -77%; growth at 100 µM (SF-295 [17]): -67%; growth at 10 µM (A498): 64%; growth at 10 µM (NCI-H226): 94% |
| CC(C)=CCC[C@H](C)c1ccc(C)c(CNCC2CCNCC2)c1O | 79% | 88% | 91% | 73% | 83% | 85% | 67% | 88% | 86% | 78.2% | 54.7% | 71% | 77% | 64.3% | 85% | 84% | 70% | > 20 µM | 64.2% | 84% | growth at 10 µM (DU-145): 91.2%; growth at 1 µM (NCI-H322M): 99%; growth at 10 µM (NCI-H522): 86.8%; GI50 [3]: 6.82 µM; LC50 (concentration killing 50% of cells) [3]: > 25 µM; TGI [3]: > 25 µM; growth at 10 µM (SR): 0.23%; growth at 0.1 µM (CAKI-1): 94%; growth at 0.1 µM (Malme-3M [7]): 89%; growth at 10 µM (SF-268 [18]): 87.7%; GI50 (HCC 2998): 4.13 µM; TGI (HCC 2998): 7.73 µM; CC50 (HCC 2998): 14.4 µM; growth at 0.01 µM (SF-268 [10]): 97%; growth at 1 µM [12]: 92%; growth at 100 µM (MDA-MB-231 [16]): -65%; growth at 100 µM (SF-295 [17]): -73%; growth at 10 µM (A498): 65%; growth at 10 µM (NCI-H226): 72% |
